From article PMC9081833, “Discovery of acylphloroglucinol-based meroterpenoid enantiomers as KSHV inhibitors from Hypericum japonicum” (RSC Advances, 2018) come the findings set out here.

Structures are written as SMILES. Where two headings read alike, the source gives them in different places. A value given as a limit tells only on which side of the number the result lay.

Data set [1] relates to KSHV lytic replication. Particulars: for Selective index (CC50/IC50): human; for IC50: supernatant of iSLK.219 cells treated 48 h used to infect Vero cells 48 h, GFP readout.
A short description of the next data set: in vitro. Particulars: human, CC50, 50% cytotoxic concentration, iSLK.219 cells, 48 h, with Dox and NaB.
For data set [2], the system named is KSHV lytic replication. Nature of the data set: Field-based 3D QSAR model of anti-KSHV activity. Details: species or system Kaposi's sarcoma associated herpesvirus (KSHV); unit not given here. Conditions: log IC50 of the anti-KSHV IC50. From the text: Qualitative analysis was followed by quantitative SAR (QSAR) modelling utilizing the Field-Based QSAR Panel implemented in Schrödinger Suite[14] to set up CoMFA/CoMSIA models from these enantiomers. These enantiomers first superimposed using the flexible shape-based alignment method (Fig. 6). […] Experimental activities of additional analogues would likely provide a better model. Moreover, correlation between the observed activities and the predicted activities was plotted in Fig. 7.
QSAR studies were conducted with Schrödinger Suite 2017-1.
A data set (Table 3) was randomly assigned into training and test sets with a ratio of approximately 4/1, and their activities (IC50) were converted to the logarithm (log IC50). The minimized conformations of these enantiomers were generated utilizing LigPrep and aligned according to the flexible shape-based alignment method. The force field was used and the maximum PLS factors were set as 1/5 of the total number of the training set in order to avoid over-fitting. The parameters that were not mentioned were left as defaults.

For data set [3], the system named is KSHV lytic replication. Description: in vitro. Conditions: human, Selective index (CC50/IC50).
Data set [4] concerns KSHV lytic replication. Description: microbe, parasite or virus in culture. Conditions: Human gammaherpesvirus 8, Vero, 48 h, supernatant of iSLK.219 cells treated 48 h used to infect Vero cells 48 h, GFP readout.
Another data set relates to Human iSLK.219 cells. Conditions: 50% cytotoxic concentration, 48 h, with Dox and NaB.

With `CC(C)=CCCC(C)(O)C1Cc2c(O)cc(O)c(C(=O)c3ccccc3)c2O1` (single isomer, unassigned; (+)) [Compound 4a, (+)-japonicol H], in the data set with KSHV lytic replication [1], the “Selective index (CC50/IC50)” value stood at 25.70 and the midpoint of inhibition, the IC50, lay at 4.9 µM. The 50% cytotoxic concentration (CC50) – broadly, the concentration that lowers cell viability or growth by half – in the data set “in vitro” turned out to be 126 µM. Besides, in the data set with KSHV lytic replication [2], the Observed activity was 0.690.
Consider `CC(C)=CCCC1(C)Oc2c(c(O)cc(O)c2C(=O)C(C)C)CC1O` (single isomer, unassigned; (+)) [Compound 2a, (+)-japonicol F], for which the half-maximal cytotoxic concentration (CC50) in “in vitro” worked out at 126 µM. The selectivity ratio in the data set with KSHV lytic replication [3] is 4.5. Further, the IC50 (in general, the concentration that gives 50% inhibition) in the data set with KSHV lytic replication [4] was found to be 28 µM. In the data set on KSHV lytic replication [2], this compound yielded an Observed activity of 1.447.
`C=C(C)C1CCC2(C)Oc3c(c(O)cc(O)c3C(=O)C(C)C)CC12` (single isomer, unassigned; (+)) [Compound 1a, (+)-japonicol E]: in the data set on KSHV lytic replication [1], the “Selective index (CC50/IC50)” value worked out at 23.49 and the IC50 amounted to 8.3 µM. Also, in the data set “in vitro”, the CC50 came out at 195 µM. In the data set with KSHV lytic replication [2], this compound registered an Observed activity of 0.919.
In the data set with KSHV lytic replication [2], `CC(C)C(=O)c1c(O)cc(O)c2c1OC1(C)CCC(C(C)(C)O)OC1C2` (stereo not shown) [Compound 6b] yielded an Observed activity of 1.600. Besides, the midpoint of cytotoxicity in the data set with Human iSLK.219 cells, the CC50, lay at 174 µM.
Turning to `CC(C)C(=O)c1c(O)cc(O)c(CC2C(C(C)(C)O)CCC2(C)O)c1O` (stereo not shown) [Compound 8b], in the data set with KSHV lytic replication [1], the “Selective index (CC50/IC50)” value was over 1.89 and the concentration for half-maximal inhibition (IC50) was 158 µM. In the data set with KSHV lytic replication [2], this compound returned an Observed activity of 2.200. Moreover, the 50% cytotoxic concentration (CC50) in the data set with Human iSLK.219 cells was over 300 µM.
The like results for `CC(C)=CCCC(C)(O)C1Cc2c(O)cc(O)c(C(=O)C(C)C)c2O1` (single isomer, unassigned; (-)) [Compound 3b, (−)-japonicol G] were, in that order, 7.48, 6.7 µM, 0.826 and 50.1 µM.
The like results for `C=C(C)C1CCC2(C)Oc3c(c(O)cc(O)c3C(=O)C(C)C)CC12` (single isomer, unassigned; (-)) [Compound 1b, (−)-japonicol E] were, in that order, 7.78, 24.5 µM, 1.388 and 190 µM.
In the case of `CC(C)C(=O)c1c(O)cc(O)c(CC2C(C(C)(C)O)CCC2(C)O)c1O` (stereo not shown) [Compound 8a], in the data set with KSHV lytic replication [1], the “Selective index (CC50/IC50)” value is on record as over 7.50 and the IC50 is 40 µM. Also, in the data set “in vitro”, the CC50 is over 300 µM. Further, the Observed activity in the data set on KSHV lytic replication [2] worked out at 1.602.
In the data set with KSHV lytic replication [1], `CC(C)C(=O)c1c(O)cc(O)c2c1OC(C)(C)C1CCC(C)(O)C1C2` (stereo not shown) [Compound 7b] gave an IC50 of 39.8 µM. Besides, the Observed activity in the data set on KSHV lytic replication [2] was 1.464. The CC50 in the data set with Human iSLK.219 cells was over 300 µM.
For `CC(C)C(=O)c1c(O)cc(O)c2c1OC1(C)CCC(C(C)(C)O)C2C1O` (stereo not shown) [Compound 5b], in the data set with KSHV lytic replication [1], the “Selective index (CC50/IC50)” value was over 3.55 and half-maximal inhibition (IC50) required 141 µM. This compound also came in with an Observed activity in the data set with KSHV lytic replication [2] of 2.149. Also, in the data set on Human iSLK.219 cells, the cytotoxic concentration (CC50) is over 500 µM.
With `CC(C)C(=O)c1c(O)cc(O)c2c1OC1(C)CCC(C(C)(C)O)OC1C2` (stereo not shown) [Compound 6a], the CC50 in “in vitro” was determined as 141 µM. For the same compound, the Observed activity with KSHV lytic replication [2] is 1.247.
Compound `CC(C)C(=O)c1c(O)cc(O)c2c1OC(C)(C)C1CCC(C)(O)C1C2` (stereo not shown) [Compound 7a] gave an IC50 in the data set on KSHV lytic replication [1] of 17.7 µM. The compound further had a CC50 in the data set “in vitro” of 221 µM. The compound further registered an Observed activity in the data set with KSHV lytic replication [2] of 0.942.
In the data set “in vitro”, `Nc1ccn(C[C@@H](CO)OCP(=O)(O)O)c(=O)n1` [Cidofovir, reference compound] yielded a CC50 of over 1 µM. Besides, the selectivity ratio in the data set on KSHV lytic replication [3] is over 123. In addition, in the data set with KSHV lytic replication [4], the half-inhibitory concentration (IC50) turned out to be 0.0081 µM.
For `CC(C)C(=O)c1c(O)cc(O)c2c1OC1(C)CCC(C(C)(C)O)C2C1O` (stereo not shown) [Compound 5a], the cytotoxic concentration (CC50) in the data set “in vitro” was over 500 µM. Also, the selectivity ratio in the data set with KSHV lytic replication [3] is over 2.46. The IC50 with KSHV lytic replication [4] is 203 µM. For the same compound, in the data set with KSHV lytic replication [2], the Observed activity is 2.307.
`CC(C)=CCCC1(C)Oc2c(c(O)cc(O)c2C(=O)C(C)C)CC1O` (single isomer, unassigned; (-)) [Compound 2b, (−)-japonicol F]: in the data set on KSHV lytic replication [1], the “Selective index (CC50/IC50)” value is 5.50 and the IC50 was 27.3 µM. In the data set on KSHV lytic replication [2], this compound had an Observed activity of 1.436. The compound further showed a cytotoxic concentration (CC50) in the data set on Human iSLK.219 cells of 150 µM.
In the same order, the values of `CC(C)=CCCC(C)(O)C1Cc2c(O)cc(O)c(C(=O)c3ccccc3)c2O1` (single isomer, unassigned; (-)) [Compound 4b, (−)-japonicol H] are over 6.79, 29.5 µM, 1.469 and over 200 µM.
Take `CC(C)=CCCC(C)(O)C1Cc2c(O)cc(O)c(C(=O)C(C)C)c2O1` (single isomer, unassigned; (+)) [Compound 3a, (+)-japonicol G]: in the data set on KSHV lytic replication [1], the “Selective index (CC50/IC50)” value stood at 3.66 and the IC50 came to 21.7 µM. In “in vitro”, the midpoint of cytotoxicity, the CC50, lay at 79.5 µM. For the same compound, in the data set with KSHV lytic replication [2], the Observed activity worked out at 1.337.
